Data on 22 compounds can be found in US11052092B2, “N-{[2-(piperidin-1-yl)phenyl](phenyl)methyl}-2-(3-oxo-3,4-dihydro-2H-1,4-benzoxazin-7-yl)acetamide derivatives and related compounds as ROR-gamma modulators for treating autoimmune diseases” (Genfit, priority 2017, dated 2021).

A word on the melting point: it is the temperature of the solid-liquid transition. As a reminder, the IC50 is the concentration at which inhibition is half-maximal.

Structures are written as SMILES. Structures can show the parent of a compound that is named as a salt. Some results are limits rather than exact numbers.

One series concerns the target T1, human RORγt (Homo sapiens, UniProt P51449).
T1 construct: the full-length cDNA of human RORγt; expressed in transfected cells; host or cells: COS-7 (monkey kidney)
T1 sequence (P51449 1-497 isoform P51449-2): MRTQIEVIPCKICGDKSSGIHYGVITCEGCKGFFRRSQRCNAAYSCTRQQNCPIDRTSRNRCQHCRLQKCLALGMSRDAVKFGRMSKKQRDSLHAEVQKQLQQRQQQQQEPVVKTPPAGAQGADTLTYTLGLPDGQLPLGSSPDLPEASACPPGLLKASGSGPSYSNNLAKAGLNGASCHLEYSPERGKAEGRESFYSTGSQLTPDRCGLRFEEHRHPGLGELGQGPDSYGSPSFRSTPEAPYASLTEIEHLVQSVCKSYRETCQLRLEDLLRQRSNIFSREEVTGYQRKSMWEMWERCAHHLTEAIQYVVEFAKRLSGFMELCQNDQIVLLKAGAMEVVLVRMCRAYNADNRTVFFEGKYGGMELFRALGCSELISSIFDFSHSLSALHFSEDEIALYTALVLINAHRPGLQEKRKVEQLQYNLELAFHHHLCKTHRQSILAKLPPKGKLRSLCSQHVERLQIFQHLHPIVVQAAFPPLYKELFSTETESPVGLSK
Briefly: RORE Luciferase/RORγt transactivation assay. It counts as cell-based. The conditions noted are these: COS-7 cells transfected with human IL-17 promoter luciferase reporter and RORγt plasmid; 20 h with compound; read-out: IC50, RORγt activity inhibition. In short, it runs like this: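 COS-7 cells were transiently co-transfected with a human IL-17 promoter (RORE/CNS)–luciferase reporter and a RORγt expression plasmid, then seeded at 10000 cells/well in serum-free, phenol red-free DMEM. Compounds were added at 0.3% DMSO final. Luciferase was read with Steady-Glo, and IC50 and Emax were derived.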
A general note: In a reporter assay the amount or activity of a reporter protein is the signal.

In series [1] the test system is Murine EL-4 lymphoma cell line overexpressing human RORγt. Briefly: IL-17 secretion from EL4 murine lymphoma. The format is cell-based. The conditions noted are these: Mus musculus; human RORγt-transfected EL4 cells, PMA (10 ng/mL) and ionomycin (1 μM), 24 h; read-out: IC50, IL-17 secretion inhibition. As to the method:
Murine EL-4 lymphoma cell line overexpressing human RORγt was used in this functional assay to assess compound ability to inhibit IL-17 cytokine secretion.
EL-4 cells are maintained in a standard culture medium RPMI supplemented with 10% fetal calf serum, 1% sodium pyruvate, 1% essential amino acids and 1% antibiotics at 37° C. in a humidified atmosphere of 5% CO02 and 95% air. Culture medium was changed every 2 days. EL4 cells were transfected with a plasmid encoding hRORγt (sequence identical to published sequence NM 001001523). […] Briefly, 1 μg of DNA/1 million cells was served to transfect EL-4 cells. Cell/DNA suspension was transferred into certified cuvette and the electroporation of RORγt plasmid was carried out using appropriate Nucleofector® program.
Cells were seeded in 96 well plates at a density of 150000 cells/I well then treated with compounds of this invention at indicated concentrations and incubated for 24 hours at 37° C. in a humidified atmosphere of 5% C02 and 95% air. EL-4 cells were pretreated with test compounds (RORγ modulators) and stimulated with PMA (10 ng/mL) and ionomycin (1 μM final concentration) in the presence of test compound concentrations for additional 24 h at 37° C. in a humidified atmosphere of 5% C02 and 95% air. Subsequently, supernatants were collected (after centrifugation at 300 g for 10 minutes) to determine the concentrations of IL-17 by HTRF (CisBio, France) or ELISA (R&D Systems Europe) according to the manufacturer's protocols.

As to `Cc1ccc(C(NC(=O)Cc2ccc3c(ccn3S(C)(=O)=O)c2)c2ccc(C)o2)c(N2CCCCC2)c1` (stereo not drawn) (as salt: ammonium) [Cpd. 106, 2-(1-methanesulfonyl-1H-indol-5-yl)-N-{[4-methyl-2-(piperidin-1-yl)phenyl](5-methylfuran-2-yl)methyl}acetamide], the melting point came out at 83 °C.

In turn, `CCSc1nc2cc(CC(=O)NC(c3ccccc3)c3ccc(C)cc3Br)ccc2[nH]1` (stereo not drawn) (as salt: hydrochloride) [Cpd. 92, N-[(2-bromo-4-methylphenyl)(phenyl)methyl]-2-[2-(ethylsulfanyl)-1H-1,3-benzodiazol-5-yl]acetamide] gave a melting point of 103 °C.

As for `Cc1ccc(C(NC(=O)Cc2ccc3c(c2)C(=O)C(=O)N3C)c2ccc(C)o2)c(N2CCCCC2)c1` (stereo not drawn) (as salt: sodium) [Cpd. 45, 2-(1-methyl-2,3-dioxo-2,3-dihydro-1H-indol-5-yl)-N-{[4-methyl-2-(piperidin-1-yl)phenyl](5-methylfuran-2-yl)methyl}acetamide], the melting point came out at 99 °C.

Compound `Cc1ccc(C(NC(=O)Cc2ccc3c(c2)C(O)C(=O)N3)c2ccc(C)o2)c(N2CCCCC2)c1` (stereo not drawn) (as salt: sodium) [Cpd. 46, 2-(3-hydroxy-2-oxo-2,3-dihydro-1H-indol-5-yl)-N-{[4-methyl-2-(piperidin-1-yl)phenyl](5-methylfuran-2-yl)methyl}acetamide] registered a melting point of 110 °C.

`Cc1ccc(C(NC(=O)Cc2ccc3c(c2)CCC3O)c2ccc(C)o2)c(N2CCCCC2)c1` (stereo not drawn) (as salt: sodium) [Cpd. 52, 2-(1-hydroxy-2,3-dihydro-1H-inden-5-yl)-N-{[4-methyl-2-(piperidin-1-yl)phenyl](5-methylfuran-2-yl)methyl}acetamide]: the melting point worked out at 97 °C.

`Cc1ccc(C(NC(=O)Cc2ccc3c(c2)C(O)CC3)c2ccc(C)o2)c(N2CCCCC2)c1` (stereo not drawn) (as salt: sodium) [Cpd. 85, 2-(3-hydroxy-2,3-dihydro-1H-inden-5-yl)-N-{[4-methyl-2-(piperidin-1-yl)phenyl](5-methylfuran-2-yl)methyl}acetamide] returned a melting point of 60 °C.

`Cc1ccc(C(NC(=O)Cc2ccc3c(ccn3CC3CCOCC3)c2)c2ccc(C)o2)c(N2CCCCC2)c1` (stereo not drawn) (as salt: sodium) [Cpd. 113, N-{[4-methyl-2-(piperidin-1-yl)phenyl](5-methylfuran-2-yl)methyl}-2-[1-(oxan-4-ylmethyl)-1H-indol-5-yl]acetamide] came in with a melting point of 67 °C.

Regarding `Cc1ccc(C(NC(=O)C2(c3ccc4c(ccn4CCC(=O)O)c3)CC2)c2ccc(C)o2)c(N2CCCCC2)c1` (stereo not drawn) (as salt: sodium) [Cpd. 154, 3-{5-[1-({[4-methyl-2-(piperidin-1-yl)phenyl](5-methylfuran-2-yl)methyl}carbamoyl)cyclopropyl]-1H-indol-1-yl}propanoic acid], the melting point came to 90 °C.

Compound `Cc1ccc(C(NC(=O)C2(c3ccc4c(c3)CCC4O)CC2)c2ccc(C)o2)c(C)c1` (stereo not drawn) (as salt: sodium) [Cpd. 155, N-[(2,4-dimethylphenyl)(5-methylfuran-2-yl)methyl]-1-(1-hydroxy-2,3-dihydro-1H-inden-5-yl)cyclopropane-1-carboxamide] gave a melting point of 58 °C.

`Cc1ccc(C(NC(=O)Cc2ccc3c(c2)/C(=N/N)C(=O)N3)c2ccc(C)o2)c(N2CCCCC2)c1` (stereo not drawn) (hydrate or solvate) [Cpd. 84, 2-[(3Z)-3-hydrazinylidene-2-oxo-2,3-dihydro-1H-indol-5-yl]-N-{[4-methyl-2-(piperidin-1-yl)phenyl](5-methylfuran-2-yl)methyl}acetamide]: the melting point was found to be 130 °C.

As for `COc1ccc(C(NC(=O)Cc2ccc3[nH]c(=O)cc(C)c3c2)c2ccccc2)c(N2CCCCC2)c1` (stereo not drawn) [Cpd. 10, N-{[4-methoxy-2-(piperidin-1-yl)phenyl](phenyl)methyl}-2-(4-methyl-2-oxo-1,2-dihydroquinolin-6-yl)acetamide], the IC50 (at human RORγt; in series [1]) was 1000 to 10000 nM in each case.

Take `Cc1ccc(C(NC(=O)Cc2ccc3c(c2)CS(=O)(=O)N3)c2ccc(C)o2)c(Br)c1` (stereo not drawn) [Cpd. 28, N-[(2-bromo-4-methylphenyl)(5-methylfuran-2-yl)methyl]-2-(2,2-dioxo-1,3-dihydro-2,1-benzothiazol-5-yl)acetamide]: the IC50 on human RORγt lay within 100 to 1000 nM; in series [1], 1000 to 10000 nM.

As for `Cc1ccc(C(NC(=O)Cc2ccc3c(c2)OCC(=O)N3)c2ccc(C)o2)c(Br)c1` (stereo not drawn) [Cpd. 31, N-[(2-bromo-4-methylphenyl)(5-methylfuran-2-yl)methyl]-2-(3-oxo-3,4-dihydro-2H-1,4-benzoxazin-7-yl)acetamide], the figures for the concentration for half-maximal inhibition (IC50) (on human RORγt; in series [1]) were 10 to 100 nM and 100 to 1000 nM, respectively.

On to `Cc1ccc(C(NC(=O)Cc2ccc3c(c2)OCC(=O)N3)c2ccc(C)o2)c(C)c1` (stereo not drawn) [Cpd. 33, N-[(2,4-dimethylphenyl)(5-methylfuran-2-yl)methyl]-2-(3-oxo-3,4-dihydro-2H-1,4-benzoxazin-7-yl)acetamide], for which the IC50 (on human RORγt; in series [1]) was 100 to 1000 nM in each case.

As for `Cc1ccc(C(NC(=O)Cc2ccc3c(c2)OCC(=O)N3)c2ccc(C)o2)c(N2CCCCC2)c1` (stereo not drawn) [Cpd. 35, N-{[4-methyl-2-(piperidin-1-yl)phenyl](5-methylfuran-2-yl)methyl}-2-(3-oxo-3,4-dihydro-2H-1,4-benzoxazin-7-yl)acetamide], the IC50 at human RORγt was 10 to 100 nM; in series [1] it was below 100 nM.

On to `Cc1ccc(C(NC(=O)Cc2ccc3c(c2)CCC(=O)N3)c2ccc(C)o2)c(Br)c1` (stereo not drawn) [Cpd. 36, N-[(2-bromo-4-methylphenyl)(5-methylfuran-2-yl)methyl]-2-(2-oxo-1,2,3,4-tetrahydroquinolin-6-yl)acetamide], for which the IC50 (on human RORγt; in series [1]) was 100 to 1000 nM throughout.

With `Cc1ccc(C(NC(=O)Cc2ccc3c(c2)C(=NN)C(=O)N3)c2ccc(C)o2)c(N2CCCCC2)c1` (stereo not drawn) [Cpd. 37, 2-(3-hydrazinylidene-2-oxo-2,3-dihydro-1H-indol-5-yl)-N-{[4-methyl-2-(piperidin-1-yl)phenyl](5-methylfuran-2-yl)methyl}acetamide], the concentration for half-maximal inhibition (IC50) on human RORγt lay within 10 to 100 nM; in series [1], 100 to 1000 nM.

Turning to `Cc1ccc(C(NC(=O)Cc2ccc3c(c2)CC(=O)N3C)c2ccc(C)o2)c(N2CCCCC2)c1` (stereo not drawn) [Cpd. 38, N-{[4-methyl-2-(piperidin-1-yl)phenyl](5-methylfuran-2-yl)methyl}-2-(1-methyl-2-oxo-2,3-dihydro-1H-indol-5-yl)acetamide], the IC50 at human RORγt fell in the range of 10 to 100 nM; in series [1], 100 to 1000 nM.

As for `Cc1ccc(C(NC(=O)Cc2ccc3c(c2)C(C)(O)C(=O)N3C)c2ccc(C)o2)c(N2CCCCC2)c1` (stereo not drawn) [Cpd. 39, 2-(3-hydroxy-1,3-dimethyl-2-oxo-2,3-dihydro-1H-indol-5-yl)-N-{[4-methyl-2-(piperidin-1-yl)phenyl](5-methylfuran-2-yl)methyl}acetamide], the IC50 (on human RORγt; in series [1]) was 100 to 1000 nM in each case.

For `Cc1ccc(C(NC(=O)Cc2ccc3c(c2)C(C)C(=O)N3)c2ccc(C)o2)c(N2CCCCC2)c1` (stereo not drawn) [Cpd. 49, N-{[4-methyl-2-(piperidin-1-yl)phenyl](5-methylfuran-2-yl)methyl}-2-(3-methyl-2-oxo-2,3-dihydro-1H-indol-5-yl)acetamide], the melting point came out at 102 °C. At human RORγt, the IC50 fell in the range of 10 to 100 nM.

Turning to `Cc1ccc(C(NC(=O)Cc2ccc3c(c2)/C(=N/N)C(=O)N3)c2ccc(C)o2)c(N2CCCCC2)c1` (stereo not drawn) [Cpd. 84, 2-[(3Z)-3-hydrazinylidene-2-oxo-2,3-dihydro-1H-indol-5-yl]-N-{[4-methyl-2-(piperidin-1-yl)phenyl](5-methylfuran-2-yl)methyl}acetamide], the concentration for half-maximal inhibition (IC50) in series [1] was in the range of 100 to 1000 nM.

Consider `Cc1ccc(C(NC(=O)C2(c3ccc4c(c3)CCN4)CC2)c2ccc(C)o2)c(C)c1` (stereo not drawn) [Cpd. 142, 1-(2,3-dihydro-1H-indol-5-yl)-N-[(2,4-dimethylphenyl)(5-methylfuran-2-yl)methyl]cyclopropane-1-carboxamide], for which the melting point was determined as 57 °C. For the same compound, the IC50 on human RORγt was in the range of 10 to 100 nM.
